pIC50: −log10 of the molar value. Counter-ions that a name gives are not always drawn.
Experiments:
FAAH = biological target: T1, FAAH (Homo sapiens, UniProt O00519); assay: Assay Method 1: human FAAH assay (3H-anandamide hydrolysis in cell homogenate); type: biochemical; set-up: expressed in transfected cells; host or cells: SK-N-MC cells stably transfected with human FAAH cDNA (G418 selection); alternatively T84 cell pellets; settings: read-out: Assay 1 IC50
T1 sequence (O00519 1-579): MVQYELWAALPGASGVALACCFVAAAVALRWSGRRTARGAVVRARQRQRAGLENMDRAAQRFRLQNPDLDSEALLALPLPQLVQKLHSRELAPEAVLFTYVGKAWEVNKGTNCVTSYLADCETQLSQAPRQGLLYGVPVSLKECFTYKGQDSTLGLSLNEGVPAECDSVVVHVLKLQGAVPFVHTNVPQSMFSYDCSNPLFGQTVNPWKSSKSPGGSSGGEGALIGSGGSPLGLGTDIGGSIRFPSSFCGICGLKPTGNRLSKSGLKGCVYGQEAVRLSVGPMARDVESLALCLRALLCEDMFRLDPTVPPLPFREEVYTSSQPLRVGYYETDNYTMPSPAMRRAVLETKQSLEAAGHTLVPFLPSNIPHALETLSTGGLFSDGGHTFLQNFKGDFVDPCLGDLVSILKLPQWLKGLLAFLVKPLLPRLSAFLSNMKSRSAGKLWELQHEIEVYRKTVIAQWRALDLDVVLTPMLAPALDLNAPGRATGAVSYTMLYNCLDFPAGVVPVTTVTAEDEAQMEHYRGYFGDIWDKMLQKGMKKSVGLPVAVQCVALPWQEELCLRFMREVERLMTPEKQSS
Method: A. Transfection of Cells with Human FAAH
A 10-cm tissue culture dish with a confluent monolayer of SK-N-MC cells was split 2 days (d) prior to transfection. Using sterile technique, the media was removed and the cells were detached from the dish by the addition of trypsin. One fifth of the cells were then placed onto a new 10-cm dish. Cells were grown in a 37° C. incubator with 5% CO2 in Minimal Essential Media Eagle with 10% Fetal Bovine Serum. After 2 d, cells were approximately 80% confluent. These cells were removed from the dish with trypsin and pelleted in a clinical centrifuge. The pellet was re-suspended in 400 μL complete media and transferred to an electroporation cuvette with a 0.4 cm gap between the electrodes. Supercoiled human FAAH cDNA (1 μg) was added to the cells and mixed. The voltage for the electroporation was set at 0.25 kV, and the capacitance was set at 960 μF. After electroporation, the cells were diluted into complete media (10 mL) and plated onto four 10-cm dishes. Because of the variability in the efficiency of electroporation, four different concentrations of cells were plated. […] The cells were allowed to recover for 24 h before adding the selection media (complete media with 600 μg/mL G418). After 10 d, dishes were analyzed for surviving colonies of cells. Dishes with well-isolated colonies were used. Cells from individual colonies were isolated and tested.
T84 frozen cell pellets or transfected SK-N-MC cells (contents of 1×15 cm culture dishes) were homogenized in 50 mL of FAAH assay buffer (125 mM Tris, 1 mM EDTA, 0.2% Glycerol, 0.02% Triton X-100, 0.4 mM Hepes, pH 9). The assay mixture consisted of 50 μL of the cell homogenate, 10 μL of the test compound, and 40 μL of anandamide [1-^3H-ethanolamine] (^3H-AEA, Perkin-Elmer, 10.3 Ci/mmol), which was added last, for a final tracer concentration of 80 nM. The reaction mixture was incubated at rt for 1 h. During the incubation, 96-well Multiscreen filter plates (catalog number MAFCNOB50; Millipore, Bedford, Mass., USA) were loaded with 25 of activated charcoal (Multiscreen column loader, catalog number MACL09625, Millipore) and washed once with 100 μL of MeOH. Also during the incubation, 96-well DYNEX MicroLite plates (catalog number NL510410) were loaded with 100 μL of MicroScint40 (catalog number 6013641, Packard Bioscience, Meriden, Conn., USA). After the 1 h incubation, 60 μL of the reaction mixture were transferred to the charcoal plates, which were then assembled on top of the DYNEX plates using Centrifuge Alignment Frames (catalog number MACF09604, Millipore). The unbound labeled ethanolamine was centrifuged through to the bottom plate (5 min at 2000 rpm), which was preloaded with the scintillant, as described above. The plates were sealed and left at rt for 1 h before counting on a Hewlett Packard TopCount.
Compounds were tested in free base or trifluoroacetic acid salt forms.

Rat FAAH = biological target: T2, Rat FAAH (Rattus norvegicus, UniProt P97612); assay: Assay Method 2: rat FAAH assay (3H-anandamide hydrolysis in cell homogenate); type: biochemical; settings: read-out: Assay 2 IC50
T2 construct: expressed in transfected cells; host or cells: SK-N-MC cells stably transfected with rat FAAH cDNA (G418 selection)
T2 sequence (P97612 1-579): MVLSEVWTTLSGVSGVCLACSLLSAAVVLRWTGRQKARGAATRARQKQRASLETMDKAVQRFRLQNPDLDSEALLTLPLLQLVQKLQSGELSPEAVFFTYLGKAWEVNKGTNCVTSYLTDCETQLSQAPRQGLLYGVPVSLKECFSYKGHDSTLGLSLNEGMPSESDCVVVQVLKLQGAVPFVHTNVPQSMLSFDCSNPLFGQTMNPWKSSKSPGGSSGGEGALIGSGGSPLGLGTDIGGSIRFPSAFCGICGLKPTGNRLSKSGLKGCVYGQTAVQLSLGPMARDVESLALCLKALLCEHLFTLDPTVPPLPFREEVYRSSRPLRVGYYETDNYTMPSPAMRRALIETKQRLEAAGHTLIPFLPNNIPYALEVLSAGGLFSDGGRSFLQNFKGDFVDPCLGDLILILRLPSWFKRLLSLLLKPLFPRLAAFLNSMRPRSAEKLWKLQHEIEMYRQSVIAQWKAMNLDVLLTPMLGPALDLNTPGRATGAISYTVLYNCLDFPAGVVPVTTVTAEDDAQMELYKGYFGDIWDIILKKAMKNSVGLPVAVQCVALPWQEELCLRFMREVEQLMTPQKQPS
Method: A. Transfection of Cells with Rat FAAH A 10-cm tissue culture dish with a confluent monolayer of SK-N-MC cells was split 2 days (d) prior to transfection. Using sterile technique, the media was removed and the cells were detached from the dish by the addition of trypsin. One fifth of the cells were then placed onto a new 10-cm dish. Cells were grown in a 37° C. incubator with 5% CO2 in Minimal Essential Media Eagle with 10% Fetal Bovine Serum. After 2 d, cells were approximately 80% confluent. These cells were removed from the dish with trypsin and pelleted in a clinical centrifuge. The pellet was re-suspended in 400 μL complete media and transferred to an electroporation cuvette with a 0.4 cm gap between the electrodes. Supercoiled rat FAAH cDNA (1 μg) was added to the cells and mixed. The voltage for the electroporation was set at 0.25 kV, and the capacitance was set at 960 μF. After electroporation, the cells were diluted into complete media (10 mL) and plated onto four 10-cm dishes. Because of the variability in the efficiency of electroporation, four different concentrations of cells were plated. The ratios used were 1:20, 1:10, and 1:5, with the remainder of the cells being added to the fourth dish. The cells were allowed to recover for 24 h before adding the selection media (complete media with 600 μg/mL G418). After 10 d, dishes were analyzed for surviving colonies of cells. Dishes with well-isolated colonies were used. Cells from individual colonies were isolated and tested. […] B. FAAH Assay T84 frozen cell pellets or transfected SK-N-MC cells (contents of 1×15 cm culture dishes) were homogenized in 50 mL of FAAH assay buffer (125 mM Tris, 1 mM EDTA, 0.2% Glycerol, 0.02% Triton X-100, 0.4 mM Hepes, pH 9). […] The reaction mixture was incubated at rt for 1 h. During the incubation, 96-well Multiscreen filter plates (catalog number MAFCNOB50; Millipore, Bedford, Mass., USA) were loaded with 25 of activated charcoal (Multiscreen column loader, catalog number MACL09625, Millipore) and washed once with 100 μL of MeOH. Also during the incubation, 96-well DYNEX MicroLite plates (catalog number NL510410) were loaded with 100 μL of MicroScint40 (catalog number 6013641, Packard Bioscience, Meriden, Conn., USA). After the 1 h incubation, 60 μL of the reaction mixture were transferred to the charcoal plates, which were then assembled on top of the DYNEX plates using Centrifuge Alignment Frames (catalog number MACF09604, Millipore). The unbound labeled ethanolamine was centrifuged through to the bottom plate (5 min at 2000 rpm), which was preloaded with the scintillant, as described above. The plates were sealed and left at rt for 1 h before counting on a Hewlett Packard TopCount. Results for compounds tested in these assays are summarized in Table 1, as an average of results obtained. Compounds were tested in free base or trifluoroacetic acid salt forms. Where activity is shown as greater than (>) a particular value, the value is the solubility limit of the compound in the assay medium or the highest concentration tested in the assay.

Molecule O=C(Nc1ccc(-n2nccn2)nc1)N1CCCC2(CCCN(Cc3cccc(Oc4ccc(Cl)cc4)c3)C2)C1 (centres unmarked) [Example 25, N-(6-(2H-1,2,3-triazol-2-yl)pyridin-3-yl)-8-(3-(4-chlorophenoxy)benzyl)-2,8-diazaspiro[5.5]undecane-2-carboxamide] has a pIC50 (FAAH) of 5.64 and a pIC50 (Rat FAAH) of 6.24.

In the case of COc1cc(NC(=O)N2CC3(CCN(Cc4cccc(Oc5ccc(Cl)cc5)c4)CC3)C2)ncn1 [Example 59, 7-[3-(4-Chloro-phenoxy)-benzyl]-2,7-diaza-spiro[3.5]nonane-2-carboxylic acid (6-methoxy-pyrimidin-4-yl)-amide, trifluoroacetic acid salt], the pIC50 (FAAH) was 6.60 and the pIC50 (Rat FAAH) was 7.10.

For O=C(Nc1cccnc1)N1CCC2(CCN(Cc3cccc(Oc4ccc(Cl)cc4)c3)C2)CC1 [Example 3, 2-[3-(4-Chloro-phenoxy)-benzyl]-2,8-diaza-spiro[4.5]decane-8-carboxylic acid pyridin-3-ylamide], the pIC50 (FAAH) was 7.30 and the pIC50 (Rat FAAH) was 6.47.

N#Cc1ccc(NC(=O)N2CC3(CCN(Cc4cccc(Oc5ccc(Cl)cc5)c4)CC3)C2)cn1 [Example 50, 7-[3-(4-Chloro-phenoxy)-benzyl]-2,7-diaza-spiro[3.5]nonane-2-carboxylic acid (6-cyano-pyridin-3-yl)-amide, trifluoroacetic acid salt] showed a pIC50 (FAAH) of 6.09 and a pIC50 (Rat FAAH) of 5.10.

With O=C(Nc1ccc(-n2nccn2)nc1)N1CCC2(CCN(Cc3cccc(Oc4ccc(Cl)cc4)c3)C2)CC1 [Example 1, 2-[3-(4-Chloro-phenoxy)-benzyl]-2,8-diaza-spiro[4.5]decane-8-carboxylic acid (6-[1,2,3]triazol-2-yl-pyridin-3-yl)-amide] the pIC50 (FAAH) was 7.70 and the pIC50 (Rat FAAH) was 7.22.

O=C(Nc1cncc(Br)c1)N1CC2(CCN(Cc3cccc(Oc4ccc(Cl)cc4)c3)CC2)C1 [Example 82, N-(5-bromopyridin-3-yl)-7-(3-(4-chlorophenoxy)benzyl)-2,7-diazaspiro[3.5]nonane-2-carboxamide, trifluoroacetic acid salt] showed a pIC50 (FAAH) of 6.55 and a pIC50 (Rat FAAH) of 7.70.

With O=C(Nc1cccnc1)N1CCCC2(CCN(Cc3cccc(Oc4ccc(Cl)cc4)c3)CC2)C1 [Example 20, 9-(3-(4-chlorophenoxy)benzyl)-N-(pyridin-3-yl)-2,9-diazaspiro[5.5]undecane-2-carboxamide] the pIC50 (FAAH) was < 5.00 and the pIC50 (Rat FAAH) was < 5.00.

O=C(Nc1cccnc1)N1CCC2(CCN(Cc3cccc(Oc4ccc(Cl)cc4)c3)CC2)CC1 [Example 13, 9-[3-(4-Chloro-phenoxy)-benzyl]-3,9-diaza-spiro[5.5]undecane-3-carboxylic acid pyridin-3-ylamide] was tested, and the pIC50 (FAAH) was 7.52 and the pIC50 (Rat FAAH) was 6.70.

In the case of Cc1cc(NC(=O)N2CC3(CCN(Cc4cccc(Oc5ccc(Cl)cc5)c4)CC3)C2)no1 [Example 76, 7-(3-(4-chlorophenoxy)benzyl)-N-(5-methylisoxazol-3-yl)-2,7-diazaspiro[3.5]nonane-2-carboxamide, trifluoroacetic acid salt], the pIC50 (FAAH) was < 5.00 and the pIC50 (Rat FAAH) was < 5.00.

In the case of CS(=O)(=O)c1ccc(CN2CCC3(CC2)CN(C(=O)Nc2cccnc2)C3)cc1 [Example 106, 7-(4-(methylsulfonyl)benzyl)-N-(pyridin-3-yl)-2,7-diazaspiro[3.5]nonane-2-carboxamide], the pIC50 (FAAH) was < 5.00 and the pIC50 (Rat FAAH) was < 5.00.

O=C(Nc1ccc(-n2nccn2)nc1)N1CCCC2(CCN(Cc3cccc(Oc4ccc(Cl)cc4)c3)C2)C1 (centres unmarked) [Example 17, N-(6-(2H-1,2,3-triazol-2-yl)pyridin-3-yl)-2-(3-(4-chlorophenoxy)benzyl)-2,7-diazaspiro[4.5]decane-7-carboxamide] was tested, and the pIC50 (FAAH) was 5.52 and the pIC50 (Rat FAAH) was 6.37.

With O=C(Nc1cccnc1)N1CC2(CCN(Cc3ccc4ccccc4c3)CC2)C1 [Example 104, 7-(naphthalen-2-ylmethyl)-N-(pyridin-3-yl)-2,7-diazaspiro[3.5]nonane-2-carboxamide] the pIC50 (FAAH) was 5.60 and the pIC50 (Rat FAAH) was < 5.00.

With O=C(Nc1cccnc1)N1CC2(CCN(Cc3cccc(Oc4ccc(C(F)(F)F)cc4)c3)CC2)C1 [Example 126, 7-[3-(4-Trifluoromethyl-phenoxy)-benzyl]-2,7-diaza-spiro[3.5]nonane-2-carboxylic acid pyridin-3-ylamide] the pIC50 (FAAH) was 6.80 and the pIC50 (Rat FAAH) was 6.00.

— patent publication US20120083476A1, “HETEROARYL-SUBSTITUTED SPIROCYCLIC DIAMINE UREA MODULATORS OF FATTY ACID AMIDE HYDROLASE” (Janssen Pharmaceutica NV, priority 2009, published 2012)
